# According to patent publication US9572820B2, “Methods of treating autophagy-associated disorders and related pharmaceutical compositions, diagnostics, screening techniques and kits” (priority 2011, dated 2017):
# Legend:
# IL-1β = IL-1β secretion from LPS-pretreated BMMs (ELISA); assay type: cell-based, murine; details: nigericin, 100 nM bafilomycin A1, 1 h
# Experimental: FIG. 1X3. induction of autophagy enhances IL-1β secretion. (A) Atg5fl/fl Cre^− and Atg^5fl/fl Cre^+ bone marrow-derived macrophages (BMMs), pretreated overnight with 100 ng/ml LPS, were stimulated for 1 h with the inflammasome agonist nigericin ([…]) with (Starvation; EBSS) or without (Full; full medium) autophagic induction. Cell culture supernatants were assayed for murine IL-1β by ELISA. Data represent mean values±s.d. (nX3); *Po0.05. (B) LPS-pretreated Atg5fl/fl Cre^− and Atg^5fl/fl Cre^+ BMMs were stimulated with […] nigericin for 1 h in OptiMEM and the release of active caspase-1 and IL-1β was determined by immunoblotting. (C) As in (A), assayed for IL-18. Data represent mean values±s.d. (nX3); *Po0.05. (D) LPS-pretreated BMMs were exposed to alum ([…]) for 1 h with or without autophagic induction by starvation. Secreted IL-1β was measured as in (A). Data represent mean values±s.d. (nX3); *Po0.05. (E) LPS-pretreated BMMs were exposed to silica ([…]) for 1 h with or without autophagic induction by starvation. Secreted IL-1β was measured as in (A). Data represent mean values±s.d. (nX3); *Po0.05. (F) BMMs were transfected with scramble (Scr) control siRNA or siRNAs against ASC and NLRP3. After 48 h following transfection, cells were treated overnight with LPS and subjected to nigericin ([…]) and starvation for 1 h. Data represent mean values±s.d. (nX3); *Po0.05. (G) Immunoblot analysis of ASC and NLRP3 knockdowns. (H) BMMs were transfected with scramble
# FIG. 2X3 Autophagic pathway progression promotes secretion of inflammasome substrates. (A, B) LPS-pretreated BMMs were treated with […] nigericin (Nig) and 100 nM bafilomycin A1 (Baf) with (Starvation) or without (Full) autophagic induction for 1 h and secreted IL-1β (A) and IL-18 (B) were measured. Data represent mean values+s.d. (nX3); *Po0.05. (C) LPS-pretreated BMMs were treated with […] of silica and 100 nM bafilomycin A1 (Baf) with (Starvation) or without (Full) autophagic induction for 1 h and secreted IL-1β were measured. Data represent mean values±s.d. (nX3); *Po0.05. (D) Colocalization of cathepsin B with the basal autophagic machinery factor LC3 and IL-1b. Fluorescence; LC3 (green, Alexa488), IL-1β (red, Alexa568), and cathepsin B (blue, Alexa633). BMMs from GFP-LC3 knockin mice were treated with LPS and then analysed for immunofluorescence. (E) Colocalization line tracing analysis from images in (D). (F) LPS-pretreated BMMs were treated with […] nigericin and cathepsin B inhibitor CA-074 Me […] , with (Starvation) or without (Full) autophagic induction, for 1 h and secreted IL-1β was measured. […] (G) LPS-pretreated Atg^5fl/fl Cr^+ and Atg^5fl/fl Cre^− BMMs were stimulated with […] nigericin for 1 h in OptiMEM and release of cathepsin B was determined by immunoblotting. […]
# BMM = experiment: Confocal quantification of cells positive for LC3 and IL-1α puncta; assay type: cell-based, murine; details: Atg5+ BMM, LPS+IFN-γ, 90 min EBSS
# Experimental: (A,B) IL-1α (ELISA) released from LPS+IFN-γ stimulated Atg5^fl/fl LysM-Cre+ and Atg5^fl/fl LysM-Cre− BMM in the presence of 50 μg/ml rapamycin (Rap), 10 mM 3-MA, or 100 nM Bafilomycin A1 (Baf A1) after 12 h of stimulation. (C) IL-1α (ELISA) in culture supernatants of cells as in A, treated with calpain inhibitor, ALLN (100 μM). (D-F) Images and quantification of cells positive for LC3-only, IL-1α-only or LC3+IL-1α. Cells, wild type (Atg5+) BMM stimulated with LPS+IFN-γ and incubated for 90 min in EBSS in the absence (D, control) or presence (E, Baf A1) of bafilomycin A1. Cutoff for cells to be considered positive: >6 red or green puncta. Red arrowheads, IL-1α+ LC3− cells; green arrowheads, IL-1α− LC3+ cells; 10 μm.
# For confocal microscopy, BMM were stained with mouse anti-GFP (Abeam, 10 μg/ml) to enhance LC3-GFP visualization, rabbit anti-caspase 1 (Santa Cruz Biotechnology), rabbit anti-calpain 1 (Cell Signaling Technology), or hamster anti-IL-1α (eBioscience) followed by secondary antibodies. Pearson's colocalization coefficients were derived using SLIDEBOOK 5.0 (Intelligent Imaging Innovations) applying the SLIDEBOOK 5 default algorithm command ‘AND’. All Pearson's coefficients were derived from three independent experiments with five fields or more per experiment, for a total of 15 fields contributing to the cumulative result.
structure (smiles),measurement,setting,value
CO/C1=C\C(C)=C\[C@@H](C)[C@@H](O)[C@@H](C)C/C(C)=C/C=C/[C@H](OC)[C@@H]([C@@H](C)[C@@H](O)[C@H](C)[C@@]2(O)C[C@@H](O)[C@H](C)[C@@H](C(C)C)O2)OC1=O [bafilomycin A1],IL-1β secretion,IL-1β; basal autophagy only (full medium),no change
same,IL-1β secretion,IL-1β; starvation,decreased IL-1β secretion
same,number of cells positive for both IL-1α and LC3,BMM,increased
